Measured values as given in patent US12459951B2, “Compounds that interact with RAS superfamily proteins for treatment of cancers, inflammatory diseases, rasopathies, and fibrotic disease” (SHY Therapeutics, LLC, priority 2022, dated 2025).
Counter-ions that a name gives are not always drawn.

Tests used:
Akt phosphorylation = assay: Akt Phosphorylation Assay (western blot), Panc-1; type: cell-based, human; settings: at 10 μM, * = activation
How it was run: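 Panc-1 (KRas G12D) cells were treated with compound at 10 μM final (0.3% DMSO) for 6 h at 37 °C, or with serial dilutions for IC50. Cells were either serum-starved overnight in 0.5% FBS and then stimulated with 1.5 ng/ml EGF for 15 min, or kept in 10% FBS without stimulation. Akt Ser473 phosphorylation in lysates was read by western blot.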

IL6 = assay: IL-6 Quantification Assay (ELISA), LPS-stimulated RAW 264.7; type: cell-based; design: inhibition: dose or concentration left out as unconfirmed; settings: Mus musculus, RAW264.7; read-out: IL-6: % inh.
Rac-1 = biological target: T1, Rac-1 (Homo sapiens, UniProt P63000); assay: Ras GTP Binding Domain Inhibition Assay (Ras Superfamily Assay); settings: read-out: Rac-1: % inh.
T1 construct: made in house
How it was run: (§1)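 Binding of 100 nM fluorescent GTP (Cy3 or Cy5, 45 min, room temperature) was read after washes from plate-captured His-tagged protein. Beforehand, compounds at 20 μM or in dilution series for IC50 sat 3 h on the protein in Tris buffer pH 7.4 or 7.0 with 1% DMSO, Sos GEF optionally added for the last hour.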

KRas G12D mutant = assay: as above; settings: 20 μM compound; for KRas G12D mutant + SOS: % inh.: with SOS; for KRas G12D mutant: % inh.: without SOS
How it was run: as §1

KRas wild type = assay: as above; settings: 20 μM compound; for KRas wild type + SOS: % inh.: with SOS; for KRas wild type: % inh.: without SOS
How it was run: as §1

| SMILES | % inh of Akt phosphorylation in Panc-1 (Akt phosphorylation) | inhibition (IL6) [%] | inhibition at 20 µM (Rac-1) [%] | KRas G12D mutant + SOS: % inh. (KRas G12D mutant) | KRas G12D mutant: % inh. (KRas G12D mutant) | KRas wild type + SOS: % inh. (KRas wild type) | KRas wild type: % inh. (KRas wild type) |
| --- | --- | --- | --- | --- | --- | --- | --- |
| CCc1nc(Nc2nc(-c3nccn3C)nn3cc(-c4ccn(C)n4)c(C)c23)nn1C [Compound 108, N-(5-Ethyl-1-methyl-1H-1,2,4-triazol-3-yl)-5-methyl-2-(1-methyl-1H-imidazol-2-yl)-6-(1-methyl-1H-pyrazol-3-yl)pyrrolo[2,1-f][1,2,4]triazin-4-amine] | D* (85-100% activation) | 50 to 74 | 76 to 100 | C (C = 50-75% inhibition) | D (D = 76-100% inhibition) | C (C = 50-75% inhibition) | D (D = 76-100% inhibition) |
| CO[C@H]1C[C@H](Nc2nc(-c3nccn3C)nn3cc(-c4cccnc4)c(C)c23)C1 [Compound 151, N-((1r,3r)-3-Methoxycyclobutyl)-5-methyl-2-(1-methyl-1H-imidazol-2-yl)-6-(pyridin-3-yl)pyrrolo[2,1-f][1,2,4]triazin-4-amine] | C* (46-84% activation) | 0 | 50 to 75 | D (D = 76-100% inhibition) | B (B = 26-49% inhibition) | C (C = 50-75% inhibition) | C (C = 50-75% inhibition) |
| CO[C@H]1C[C@H](Nc2nc(-c3nccn3C)nn3cc(-c4ccn(C)n4)c(C)c23)C1 [Compound 103, N-((1r,3r)-3-Methoxycyclobutyl)-5-methyl-2-(1-methyl-1H-imidazol-2-yl)-6-(1-methyl-1H-pyrazol-3-yl)pyrrolo[2,1-f][1,2,4]triazin-4-amine hydrochloride salt] | C* (46-84% activation) | 0 | 1 to 25 | B (B = 26-49% inhibition) | B (B = 26-49% inhibition) | A (A = 1-25% inhibition) | B (B = 26-49% inhibition) |
| Cc1c(-c2ccn(C3CC3)n2)cn2nc(-c3nccn3C)nc(Nc3cc(O)ccn3)c12 [Compound 150, 2-((6-(1-Cyclopropyl-1H-pyrazol-3-yl)-5-methyl-2-(1-methyl-1H-imidazol-2-yl)pyrrolo[2,1-f][1,2,4]triazin-4-yl)amino)pyridin-4-ol] | B* (26-49% activation) | 1 to 24 | 50 to 75 | D (D = 76-100% inhibition) | D (D = 76-100% inhibition) | D (D = 76-100% inhibition) | D (D = 76-100% inhibition) |
| Cc1c(-c2ccn(C)n2)cn2nc(-c3nccn3C)nc(Nc3cc(OC4CC4)ccn3)c12 [Compound 126, N-(4-Cyclopropoxypyridin-2-yl)-5-methyl-2-(1-methyl-1H-imidazol-2-yl)-6-(1-methyl-1H-pyrazol-3-yl)pyrrolo[2,1-f][1,2,4]triazin-4-amine] | D* (85-100% activation) | 25 to 49 | 26 to 49 | B (B = 26-49% inhibition) | B (B = 26-49% inhibition) | A (A = 1-25% inhibition) | A (A = 1-25% inhibition) |
| CO[C@H]1C[C@@H](Nc2nc(-c3nccn3C)nn3cc(-c4ccn(C)n4)c(C)c23)C1 [Compound 131, N-((1s,3s)-3-Methoxycyclobutyl)-5-methyl-2-(1-methyl-1H-imidazol-2-yl)-6-(1-methyl-1H-pyrazol-3-yl)pyrrolo[2,1-f][1,2,4]triazin-4-amine] | A (1-25% inhibition) | 0 | 0 | 0 (0 = 0% inhibition) | A (A = 1-25% inhibition) | 0 (0 = 0% inhibition) | B (B = 26-49% inhibition) |
| COc1cc(-c2cn3nc(-c4nccn4C)nc(N[C@@H]4CC[C@H](OC)C4)c3c2C)ccn1 (racemic) [Compound 164, rac N-((1R,3S)-3-Methoxycyclopentyl)-6-(2-methoxypyridin-4-yl)-5-methyl-2-(1-methyl-1H-imidazol-2-yl)pyrrolo[2,1-f][1,2,4]triazin-4-amine] | A* (1-25% activation) | 75 to 100 | 1 to 25 | 0 (0 = 0% inhibition) | A (A = 1-25% inhibition) | A (A = 1-25% inhibition) | A (A = 1-25% inhibition) |
| COc1cnc(Nc2nc(-c3nccn3C)nn3cc(-c4ccn(C)n4)c(C)c23)cn1 [Compound 110, N-(5-Methoxypyrazin-2-yl)-5-methyl-2-(1-methyl-1H-imidazol-2-yl)-6-(1-methyl-1H-pyrazol-3-yl)pyrrolo[2,1-f][1,2,4]triazin-4-amine] | C* (46-84% activation) | 1 to 24 | 50 to 75 | B (B = 26-49% inhibition) | C (C = 50-75% inhibition) | C (C = 50-75% inhibition) | B (B = 26-49% inhibition) |
| Cc1c(-c2ccn(C(C)C)n2)cn2nc(-c3nccn3C)nc(Nc3nccc(OCCN(C)C)n3)c12 [Compound 96, N-(4-(2-(Dimethylamino)ethoxy)pyrimidin-2-yl)-6-(1-isopropyl-1H-pyrazol-3-yl)-5-methyl-2-(1-methyl-1H-imidazol-2-yl)pyrrolo[2,1-f][1,2,4]triazin-4-amine] | D* (85-100% activation) | 50 to 74 | 76 to 100 | D (D = 76-100% inhibition) | D (D = 76-100% inhibition) | D (D = 76-100% inhibition) | D (D = 76-100% inhibition) |
